Test results: patent publication US20230355578A1, “PHARMACEUTICAL COMBINATIONS OF STATINS AND FIBRATES FOR THE TREATMENT AND PREVENTION OF […] AND CARDIOVASCULAR DISEASE” (LABORATORIOS SILANES S.A. DE C.V., priority 2020, published 2023)
Where two headings read alike, the source gives them in different places.

Columns and labels:
[1] = cited from earlier work
[2] = biological target: T1, OATP1B1 (Homo sapiens, UniProt Q9Y6L6); conditions: Wong, 2006, Yamazaki, 2005; cited from earlier work
T1 sequence (Q9Y6L6 1-691): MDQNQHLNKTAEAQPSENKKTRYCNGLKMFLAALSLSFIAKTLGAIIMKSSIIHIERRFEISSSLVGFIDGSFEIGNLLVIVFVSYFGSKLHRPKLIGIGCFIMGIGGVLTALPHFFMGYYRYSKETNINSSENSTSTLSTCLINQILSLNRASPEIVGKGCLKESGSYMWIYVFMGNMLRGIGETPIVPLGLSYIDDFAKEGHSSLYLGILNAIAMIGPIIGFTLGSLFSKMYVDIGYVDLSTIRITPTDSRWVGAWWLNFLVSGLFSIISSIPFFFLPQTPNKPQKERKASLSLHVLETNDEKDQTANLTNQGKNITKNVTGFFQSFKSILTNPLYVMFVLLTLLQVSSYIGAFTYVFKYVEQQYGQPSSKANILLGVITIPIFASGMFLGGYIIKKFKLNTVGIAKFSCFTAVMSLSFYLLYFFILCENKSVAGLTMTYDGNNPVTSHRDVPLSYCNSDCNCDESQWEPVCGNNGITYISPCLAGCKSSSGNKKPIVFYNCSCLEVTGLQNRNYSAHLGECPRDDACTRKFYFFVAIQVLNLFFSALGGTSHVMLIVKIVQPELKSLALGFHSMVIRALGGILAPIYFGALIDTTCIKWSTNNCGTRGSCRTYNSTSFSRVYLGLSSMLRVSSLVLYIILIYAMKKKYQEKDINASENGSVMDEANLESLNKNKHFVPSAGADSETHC

[3] = Particle size distribution by laser beam diffraction; type: physicochemical
Description: The determination of the particle size distribution by laser beam diffraction for micronized fenofibrate was carried out using a DPS module in a particle size analyzer.
Determination of particle size distribution by laser beam diffraction was carried out for micronized fenofibrate by placing 0.5 g of the raw material in a sample holder and using a DPS module in the particle size analyzer to obtain an obscuration of 4-7%. The determination is made in duplicate.

[4] = biological target: P-gp (Homo sapiens, UniProt P08183); conditions: Wong, 2006, Yamazaki, 2005; cited from earlier work
P-gp, sequence (P08183 whole entry): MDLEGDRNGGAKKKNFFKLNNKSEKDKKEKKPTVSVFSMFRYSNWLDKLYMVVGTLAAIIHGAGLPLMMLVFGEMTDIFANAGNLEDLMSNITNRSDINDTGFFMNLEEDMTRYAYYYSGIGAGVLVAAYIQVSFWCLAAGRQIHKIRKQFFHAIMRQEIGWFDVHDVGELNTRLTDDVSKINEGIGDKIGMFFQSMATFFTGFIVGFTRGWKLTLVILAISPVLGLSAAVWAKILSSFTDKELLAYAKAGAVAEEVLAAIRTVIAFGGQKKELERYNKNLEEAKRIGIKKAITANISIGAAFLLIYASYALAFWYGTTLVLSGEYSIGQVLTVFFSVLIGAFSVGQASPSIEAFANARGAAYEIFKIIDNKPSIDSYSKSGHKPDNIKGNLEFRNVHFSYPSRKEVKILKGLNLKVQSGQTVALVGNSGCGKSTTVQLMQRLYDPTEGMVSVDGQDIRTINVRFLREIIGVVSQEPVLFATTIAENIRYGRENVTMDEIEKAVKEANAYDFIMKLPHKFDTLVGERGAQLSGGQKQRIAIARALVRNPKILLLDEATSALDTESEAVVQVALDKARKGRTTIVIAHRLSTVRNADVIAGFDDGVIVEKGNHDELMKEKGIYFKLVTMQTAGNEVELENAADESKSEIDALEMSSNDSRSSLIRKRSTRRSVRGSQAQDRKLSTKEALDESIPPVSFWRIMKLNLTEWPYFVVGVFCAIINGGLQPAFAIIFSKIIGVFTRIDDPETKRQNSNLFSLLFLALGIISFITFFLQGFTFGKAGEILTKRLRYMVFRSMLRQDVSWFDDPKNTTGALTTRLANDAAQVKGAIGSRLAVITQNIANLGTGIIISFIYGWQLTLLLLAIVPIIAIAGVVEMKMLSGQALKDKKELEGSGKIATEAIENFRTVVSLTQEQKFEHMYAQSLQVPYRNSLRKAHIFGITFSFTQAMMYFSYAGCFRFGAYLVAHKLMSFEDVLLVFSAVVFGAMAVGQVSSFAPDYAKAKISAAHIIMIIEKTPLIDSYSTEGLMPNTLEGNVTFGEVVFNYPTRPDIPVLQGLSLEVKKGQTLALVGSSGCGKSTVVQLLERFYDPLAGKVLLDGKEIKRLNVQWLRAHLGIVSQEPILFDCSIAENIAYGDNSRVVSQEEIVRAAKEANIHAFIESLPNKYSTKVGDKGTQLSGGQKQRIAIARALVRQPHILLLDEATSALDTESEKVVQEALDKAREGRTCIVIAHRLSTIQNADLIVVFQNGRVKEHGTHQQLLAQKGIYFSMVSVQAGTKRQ

[5] = tested on: cytochrome P450; conditions: Wong, 2006, Yamazaki, 2005; cited from earlier work

SMILES | concentrations reported in the literature ([1]; Chou, 2013) | drug-drug interaction potential by inhibition of OATP1B1 [2] | particle size distribution (100%) [3] | particle size distribution (d10) [3] | particle size distribution (d50) [3] | particle size distribution (d90) [3] | inhibition of P-gp-mediated transport [4] | metabolism via cytochrome P450 [5] | concentrations reported in the literature ([1]; Back, 2018, Moffat, 2011)
CC(C)c1c(C(=O)Nc2ccccc2)c(-c2ccccc2)c(-c2ccc(F)cc2)n1CC[C@@H](O)C[C@@H](O)CC(=O)O [atorvastatin] | 2.5 to 50.1 ng/mL |  |  |  |  |  |  |  | 
CC(C)OC(=O)C(C)(C)Oc1ccc(C(=O)c2ccc(Cl)cc2)cc1 [fenofibrate] |  | do not have a potential to cause a clinically significant drug-drug interaction by inhibition of OATP1B1 | less than 30 μm | ≤ 0.95 μm | ≤ 5.35 μm | ≤ 11.28 μm | do not significantly inhibit P-gp-mediated transport | are not metabolized via cytochrome P450 | 
CC(C)(Oc1ccc(C(=O)c2ccc(Cl)cc2)cc1)C(=O)O [fenofibric acid] |  | do not have a potential to cause a clinically significant drug-drug interaction by inhibition of OATP1B1 |  |  |  |  | do not significantly inhibit P-gp-mediated transport | are not metabolized via cytochrome P450 | 3.17-30 μm/mL
